Like-named read-outs stand apart in the source and are kept apart here.
Experiments:
ZR-75-1 cells = assay: Cytotoxic assay, IC50 in ZR-75-1 cells; format: cell-based; settings: Homo sapiens, mean ± SD, read-out: IC50 Cell Lines ZR-75-1
MDA-MB-231 cells = assay: Cytotoxic assay, IC50 in MDA-MB-231 cells; format: cell-based; settings: Homo sapiens, mean ± SD, read-out: IC50 Cell Lines MDA-MB-231
Method: (§1) The cytotoxic activity of all the synthesized chalcones was tested against breast cancer cell lines using an MTT cell proliferation assay. All compounds were tested in vitro at 10 and 100 µM using the cell viability assay in MCF-7 for 24 h in normoxia (Table 1). Firstly, the cytotoxic effect of the chalcone compounds modified in ring B and with an unsubstituted ring A was tested (compounds 3–8). […] Secondly, compounds with modifications in the A and B rings (9–13) were tested.
(§2) The cell culture methodology was used with modifications. Three human breast cancer cell lines were used for this study: MCF-7 (ATCC® HTB-22™), ZR-75-1 (ATCC® CRL-1500™), MDA-MB-231 (ATCC® HTB-26™), and the non-tumorigenic MCF-10F (ATCC® CRL-10318™) cell lines. Cells were cultured in specific media according to ATCC recommendations. The incubation condition was established at 37 °C, a complete humid atmosphere, 5% CO2 and 95% O2.
(§3) The cytotoxic effect of the chalcone compounds was assessed in MCF-10F cells in a dose- and time-dependent manner. Cells (1 × 10^4 and 4 × 10^4) cultured under normoxic conditions were seeded in 24-well plates in quadruplicate and incubated for 4 days until 70% confluence. After this incubation period, cells were exposed to concentrations of the synthesized compounds dissolved in ethanol (50%) at concentrations ranging from 0 to 96.8 µg/mL (dissolved in 0.5% DMSO). Doxorubicin was used as the control drug, and for all data a p < 0.05 value was considered statistically significant. Cell viability was assessed using a neutral red uptake assay after 24 h of treatment.

MCF-10F cells = assay: Cytotoxic assay, IC50 in non-tumorigenic MCF-10F cells; format: cell-based, human; settings: MCF-10F non-tumorigenic cells, mean ± SD, read-out: IC50 Cell Lines MCF-10F
Method: as §2, §3

MCF-7 cells [1] = assay: Cytotoxic assay, IC50 in MCF-7 cells; format: cell-based; settings: Homo sapiens, MCF7, mean ± SD, read-out: IC50 Cell Lines MCF-7
MCF-7 cells [2] = assay: Cell viability of MCF-7 cells after treatment at 10 and 100 µM (MTT cell proliferation assay, 24 h, normoxia); format: cell-based; settings: Homo sapiens, mean ± SD; for viability at 10 µM: MCF7, 10 µM; for viability at 100 µM: MCF7, 100 µM
Method: as §1
as §2, with “[…]. […]” for “O2.”

MCF-7 cells [3] = tested on: MCF-7 cells; set-up: method as in PMID 27814565; settings: read-out: IC50 on the growth of the MCF-7 cells; cited from earlier work

Which results are given for `CC(=O)c1ccc(O)c(CC=C(C)C)c1` [Compound 1b]?
IC50 (ZR-75-1 cells): 61.6 ± 14.1 µM; IC50 (MDA-MB-231 cells): 74 ± 8.72 µM; IC50 (MCF-10F cells; Homo sapiens, MCF-10F): 79.5 ± 9.9 µM; IC50 (MCF-7 cells [1]): 79.4 ± 12.2 µM

What does the source list for `O=C(/C=C/c1ccccc1)c1ccccc1` [Compound 3]?
IC50 (ZR-75-1 cells): > 80 µM; viability at 10 µM (MCF-7 cells [2]): 81.3 ± 9.4%; viability at 100 µM (MCF-7 cells [2]): 65.2 ± 5.7%; IC50 (MDA-MB-231 cells): > 80 µM; IC50 (MCF-10F cells; Homo sapiens, MCF-10F): > 80 µM; IC50 (MCF-7 cells [1]): > 80 µM

Which IC50 (ZR-75-1 cells) does the source give for `COc1ccc(/C=C/C(=O)c2ccccc2)cc1` [Compound 4] here?
The IC50 was over 80 µM.

What about the viability at 10 µM (MCF-7 cells [2]) of the same compound?
Its viability at 10 µM is 74.5 ± 10.3%.

And the viability at 100 µM (MCF-7 cells [2])?
The viability at 100 µM was 55.1 ± 5.1%.

What about the IC50 (MDA-MB-231 cells) of the same compound?
The IC50 was over 80 µM.

And the IC50 (MCF-10F cells; Homo sapiens)?
Its IC50 is over 80 µM.

And the IC50 (MCF-7 cells [1])?
The IC50 was over 80 µM.

Which IC50 (ZR-75-1 cells) does the source give for `CN(C)c1ccc(/C=C/C(=O)c2ccccc2)cc1` [Compound 5] here?
Its IC50 is 76.5 ± 12.6 µM.

What about the viability at 10 µM (MCF-7 cells [2]) of the same compound?
The viability at 10 µM was 47.6 ± 3.2%.

What about the viability at 100 µM (MCF-7 cells [2]) of the same compound?
The viability at 100 µM was 52.4 ± 4.3%.

And the IC50 (MDA-MB-231 cells)?
The IC50 was 79.8 ± 9.31 µM.

And the IC50 (MCF-10F cells; Homo sapiens, MCF-10F)?
Its IC50 is over 80 µM.

What about the IC50 (MCF-7 cells [1]) of the same compound?
Its IC50 is over 80 µM.

Which IC50 (ZR-75-1 cells) does the source give for `COc1cc(/C=C/C(=O)c2ccccc2)ccc1O` [Compound 6] here?
The IC50 was 43.2 ± 6.58 µM.

What about the viability at 10 µM (MCF-7 cells [2]) of the same compound?
The viability at 10 µM was 47 ± 4.9%.

And the viability at 100 µM (MCF-7 cells [2])?
The viability at 100 µM was 4.9 ± 0.6%.

And the IC50 (MDA-MB-231 cells)?
The IC50 was 52 ± 4.53 µM.

What about the IC50 (MCF-10F cells; Homo sapiens, MCF-10F) of the same compound?
The IC50 was 72.6 ± 10.3 µM.

And the IC50 (MCF-7 cells [1])?
Its IC50 is 21.6 ± 2.71 µM.

Which results are given for `O=C(/C=C/c1ccc2c(c1)OCO2)c1ccccc1` [Compound 7]?
IC50 (ZR-75-1 cells): > 80 µM; viability at 10 µM (MCF-7 cells [2]): 43.5 ± 3.4%; viability at 100 µM (MCF-7 cells [2]): 38.6 ± 4.3%; IC50 (MDA-MB-231 cells): > 80 µM; IC50 (MCF-10F cells; Homo sapiens, MCF-10F): > 80 µM; IC50 (MCF-7 cells [1]): > 80 µM

What does the source list for `COc1cc(OC)c(OC)cc1/C=C/C(=O)c1ccccc1` [Compound 8]?
IC50 (ZR-75-1 cells): > 80 µM; viability at 10 µM (MCF-7 cells [2]): 100 ± 12.6%; viability at 100 µM (MCF-7 cells [2]): 94.4 ± 11.6%; IC50 (MDA-MB-231 cells): > 80 µM; IC50 (MCF-10F cells; Homo sapiens, MCF-10F): > 80 µM; IC50 (MCF-7 cells [1]): > 80 µM

What does the source list for `CC(C)=CCc1cc(C(=O)/C=C/c2ccccc2)ccc1O` [Compound 9]?
IC50 (ZR-75-1 cells): > 80 µM; viability at 10 µM (MCF-7 cells [2]): 93.8 ± 7.9%; viability at 100 µM (MCF-7 cells [2]): 82.5 ± 6.1%; IC50 (MDA-MB-231 cells): > 80 µM; IC50 (MCF-10F cells; Homo sapiens, MCF-10F): > 80 µM; IC50 (MCF-7 cells [1]): > 80 µM

What does the source list for `COc1ccc(/C=C/C(=O)c2ccc(O)c(CC=C(C)C)c2)cc1` [Compound 10]?
IC50 (ZR-75-1 cells): > 80 µM; viability at 10 µM (MCF-7 cells [2]): 73.7 ± 6.7%; viability at 100 µM (MCF-7 cells [2]): 62.3 ± 7.6%; IC50 (MDA-MB-231 cells): 78 ± 4.34 µM; IC50 (MCF-10F cells; Homo sapiens, MCF-10F): > 80 µM; IC50 (MCF-7 cells [1]): > 80 µM

Which IC50 (ZR-75-1 cells) does the source give for `CC(C)=CCc1cc(C(=O)/C=C/c2ccc(N(C)C)cc2)ccc1O` [Compound 11] here?
The IC50 was 78.2 ± 6.87 µM.

And the viability at 10 µM (MCF-7 cells [2])?
The viability at 10 µM was 42 ± 4.3%.

What about the viability at 100 µM (MCF-7 cells [2]) of the same compound?
The viability at 100 µM was 42.4 ± 3.9%.

What about the IC50 (MDA-MB-231 cells) of the same compound?
Its IC50 is 72.3 ± 2.33 µM.

And the IC50 (MCF-10F cells; Homo sapiens, MCF-10F)?
Its IC50 is 78.4 ± 21.3 µM.

And the IC50 (MCF-7 cells [1])?
The IC50 was over 80 µM.

Which results are given for `COc1cc(/C=C/C(=O)c2ccc(O)c(CC=C(C)C)c2)ccc1O` [Compound 12, (E)-1-(4-hydroxy-3-(3-methylbut-2-en-1-yl)phenyl)-3-(4-hydroxy-3-methoxyphenyl)prop-2-en-1-one]?
IC50 (ZR-75-1 cells): 9.4 ± 1.74 µM; viability at 10 µM (MCF-7 cells [2]): 10.3 ± 0.6%; viability at 100 µM (MCF-7 cells [2]): 3.6 ± 0.9%; IC50 (MDA-MB-231 cells): 6.12 ± 0.84 µM; IC50 (MCF-10F cells; Homo sapiens, MCF-10F): 95.8 ± 1.52 µM; IC50 (MCF-10F cells): 75.8 ± 11.5 µM; IC50 (MCF-7 cells [1]): 4.19 ± 1.04 µM

With `COc1cc(OC)c(OC)cc1/C=C/C(=O)c1ccc(O)c(CC=C(C)C)c1` [Compound 13] as the compound, how does the IC50 (ZR-75-1 cells) read?
Its IC50 is 8.75 ± 2.01 µM.

What about the viability at 10 µM (MCF-7 cells [2]) of the same compound?
The viability at 10 µM was 32.4 ± 4.5%.

What about the viability at 100 µM (MCF-7 cells [2]) of the same compound?
Its viability at 100 µM is 3.1 ± 0.4%.

And the IC50 (MDA-MB-231 cells)?
Its IC50 is 18.1 ± 1.65 µM.

And the IC50 (MCF-10F cells; Homo sapiens, MCF-10F)?
Its IC50 is 95.1 ± 1.97 µM.

And the IC50 (MCF-10F cells)?
The IC50 was 75.1 ± 12 µM.

What about the IC50 (MCF-7 cells [1]) of the same compound?
The IC50 was 3.3 ± 0.92 µM.

Which IC50 (ZR-75-1 cells) does the source give for `COc1cccc2c1C(=O)c1c(O)c3c(c(O)c1C2=O)C[C@@](O)(C(=O)CO)C[C@@H]3O[C@H]1C[C@H](N)[C@H](O)[C@H](C)O1` [Doxorubicin, reference compound] here?
The IC50 was 79.8 ± 11 µM.

And the viability at 10 µM (MCF-7 cells [2])?
The viability at 10 µM was 49.3 ± 2.2%.

And the viability at 100 µM (MCF-7 cells [2])?
Its viability at 100 µM is 57.6 ± 2.9%.

What about the IC50 (MDA-MB-231 cells) of the same compound?
Its IC50 is 47.6 ± 5.74 µM.

What about the IC50 (MCF-10F cells; Homo sapiens, MCF-10F) of the same compound?
The IC50 was 83.9 ± 8.99 µM.

What about the IC50 (MCF-7 cells [1]) of the same compound?
The IC50 was 111 ± 8.95 µM.

With `C=C(C)C(O)Cc1c(O)ccc(C(=O)/C=C/c2ccc(O)c(CC=C(C)C)c2)c1O` (stereo not shown) [Paratocarpin E] as the compound, how does the IC50 (MCF-7 cells [3]) read?
The IC50 was 19.6 µM.
